Test results from the supplement of paper PMC10307832.

Assays:
Assay in all cases: relative viability (nuclei count vs DMSO), 5 days (fraction); higher = more cells survive
EKVX = system: EKVX
How it was run: (§1)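 After 5 days of treatment, lung cancer cells in 1536-well plates were fixed and stained in a single step (final 0.05% Triton X-100, 1% formaldehyde, 1 ug/ml Hoechst) and their nuclei counted on 4× images. Treatment had been applied by pin tool the day after seeding as one drug alone or as a fixed anchor-drug dose with five library-drug doses (not always all listed) in √10 steps. Relative viability is the nuclei count of treated wells divided by that of vehicle wells, and values are medians of duplicate plates.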

NCI-H2009 = system: NCI-H2009
How it was run: as §1

SK-LU-1 = system: SK-LU-1
How it was run: as §1

NCI-H1355 = system: NCI-H1355
How it was run: as §1

NCI-H522 = system: NCI-H522
How it was run: as §1

NCI-H1437 = system: NCI-H1437
How it was run: as §1

NCI-H661 = system: NCI-H661
How it was run: as §1

NCI-H1734 = system: NCI-H1734
How it was run: as §1

NCI-H647 = system: NCI-H647
How it was run: as §1

NCI-H2170 = system: NCI-H2170
How it was run: as §1

SK-MES-1 = system: SK-MES-1
How it was run: as §1

Nc1ccn([C@@H]2O[C@H](CO)[C@@H](O)[C@@H]2O)c(=O)n1 [Cytarabine] + CCNC(=O)c1noc(-c2cc(C(C)C)c(O)cc2O)c1-c1ccc(CN2CCOCC2)cc1 [Luminespib] (partner 0.01 µM)
relative viability (EKVX; first compound 0.1581 µM): 0.287 | relative viability (EKVX; first compound 0.5 µM): 0.186 | relative viability (NCI-H2009; first compound 0.005 µM): 0.995 | relative viability (NCI-H2009; first compound 0.01581 µM): 1.06 | relative viability (NCI-H2009; first compound 0.05 µM): 1.04 | relative viability (NCI-H2009; first compound 0.1581 µM): 0.775 | relative viability (NCI-H2009; first compound 0.5 µM): 0.239 | relative viability (SK-LU-1; first compound 0.005 µM): 0.178 | relative viability (SK-LU-1; first compound 0.01581 µM): 0.183 | relative viability (SK-LU-1; first compound 0.05 µM): 0.214 | relative viability (SK-LU-1; first compound 0.1581 µM): 0.185 | relative viability (SK-LU-1; first compound 0.5 µM): 0.185 | relative viability (NCI-H1355; first compound 0.005 µM): 0.612 | relative viability (NCI-H1355; first compound 0.01581 µM): 0.734 | relative viability (NCI-H1355; first compound 0.05 µM): 0.623 | relative viability (NCI-H1355; first compound 0.1581 µM): 0.344 | relative viability (NCI-H1355; first compound 0.5 µM): 0.402 | relative viability (NCI-H522; first compound 0.005 µM): 1.09 | relative viability (NCI-H522; first compound 0.01581 µM): 0.953 | relative viability (NCI-H522; first compound 0.05 µM): 0.968 | relative viability (NCI-H522; first compound 0.1581 µM): 0.422 | relative viability (NCI-H522; first compound 0.5 µM): 0.438 | relative viability (NCI-H1437; first compound 0.005 µM): 0.86 | relative viability (NCI-H1437; first compound 0.01581 µM): 0.852 | relative viability (NCI-H1437; first compound 0.05 µM): 0.571 | relative viability (NCI-H1437; first compound 0.1581 µM): 0.301 | relative viability (NCI-H1437; first compound 0.5 µM): 0.23 | relative viability (NCI-H661; first compound 0.005 µM): 0.805 | relative viability (NCI-H661; first compound 0.01581 µM): 0.873 | relative viability (NCI-H661; first compound 0.05 µM): 0.766 | relative viability (NCI-H661; first compound 0.1581 µM): 0.511 | relative viability (NCI-H661; first compound 0.5 µM): 0.37 | relative viability (NCI-H1734; first compound 0.005 µM): 0.251 | relative viability (NCI-H1734; first compound 0.01581 µM): 0.162 | relative viability (NCI-H1734; first compound 0.05 µM): 0.138 | relative viability (NCI-H1734; first compound 0.1581 µM): 0.139 | relative viability (NCI-H1734; first compound 0.5 µM): 0.134 | relative viability (NCI-H647; first compound 0.005 µM): 0.146 | relative viability (NCI-H647; first compound 0.01581 µM): 0.111 | relative viability (NCI-H647; first compound 0.05 µM): 0.112 | relative viability (NCI-H647; first compound 0.1581 µM): 0.0665 | relative viability (NCI-H647; first compound 0.5 µM): 0.0757 | relative viability (NCI-H2170; first compound 0.005 µM): 0.761 | relative viability (NCI-H2170; first compound 0.01581 µM): 0.431 | relative viability (NCI-H2170; first compound 0.05 µM): 0.248 | relative viability (NCI-H2170; first compound 0.1581 µM): 0.23 | relative viability (NCI-H2170; first compound 0.5 µM): 0.158 | relative viability (SK-MES-1; first compound 0.005 µM): 0.934 | relative viability (SK-MES-1; first compound 0.01581 µM): 0.565 | relative viability (SK-MES-1; first compound 0.05 µM): 0.319 | relative viability (SK-MES-1; first compound 0.1581 µM): 0.226 | relative viability (SK-MES-1; first compound 0.5 µM): 0.232
